Results from patent US4224329A, “2-Substitute d-trans-5-aryl-2,3,4,4a,5,9b-hexahydro-1H-pyrido[4,3-b]indoles” (Pfizer Inc., priority 1979, dated 1980).
Structures can show the parent of a compound that is named as a salt. Where two headings read alike, the source gives them in different places.

Tests used:
Amphetamine Stereotypy = assay: Antagonism of Amphetamine Stereotypy in Rats (ED50 for blocking characteristic amphetamine cage movement); assay type: in vivo; conditions: s.c.; for ED50, 1 Hr.: 60 min; for ED50, 24 Hrs.: 1440 min; for ED50, 48 Hrs.: 2880 min; for ED50, 72 Hrs.: 4320 min; for ED50: Rattus norvegicus, sc
Protocol: The effects of the compounds of the present invention on prominent amphetamine-induced symptoms were studied in rats by a rating scale modeled after the one reported by Quinton and Halliwell, and Weissman. Groups of five rats were placed in a covered plastic cage measuring approximately 26 cm.×42 cm.×16 cm. […] They were then treated 1, 5 and 24 hrs. later with d-amphetamine sulfate, 5 mg./kg. intraperitoneally (i.p.). […] On the basis of dose-response data after amphetamine it was possible to determine the effective dose of the compound necessary to antagonize or block the characteristic amphetamine behavior of cage movement for fifty percent of the rats tested (ED50). The time of rating chosen coincides with the peak action of amphetamine which is 60-80 min. after treatment with this agent.
Employing the above-described procedure, the following 4a,9b-trans compounds were tested for their ability to block the behavior effects of amphetamine, the results being reported as the ED50 in mg./kg. at the indicated times: [drawing 30]
A. The following results were obtained on the mixture of diastereomers for those compounds wherein R contains a secondary alcohol group and on the single diastereomer of the other 4a, 9b-trans hexahydro-pyrido-indoles.
B. The results of tests in which compounds of the invention reported in Part A, above are compared with the corresponding δ-substituted-5-aryl-1,2,3,4-tetrahydropyrido[4,3-b]indoles of U.S. Pat. No. 4,001,263 are summarized below. For each pair the results obtained on the prior art compound (a) are given first and the results for the compound of the invention (b) are given second. Where indicated the test compound was also administered orally (p.o.) and tests were carried out for 48 hours.
C. […] In each case the compounds are of the formula
The tests were carried out for 72 hours.

dopamine receptors = dopamine receptors (Rattus norvegicus, UniProt P61169); assay: Inhibition of 3H-Spiroperidol Binding to Dopamine Receptors (rat corpus striatum); set-up: species or system rats (Sprague-Dawley CD males); conditions: 0.5 nM 3H-spiroperidol, 10 minutes at 37° C.
dopamine receptors, sequence (P61169 whole entry): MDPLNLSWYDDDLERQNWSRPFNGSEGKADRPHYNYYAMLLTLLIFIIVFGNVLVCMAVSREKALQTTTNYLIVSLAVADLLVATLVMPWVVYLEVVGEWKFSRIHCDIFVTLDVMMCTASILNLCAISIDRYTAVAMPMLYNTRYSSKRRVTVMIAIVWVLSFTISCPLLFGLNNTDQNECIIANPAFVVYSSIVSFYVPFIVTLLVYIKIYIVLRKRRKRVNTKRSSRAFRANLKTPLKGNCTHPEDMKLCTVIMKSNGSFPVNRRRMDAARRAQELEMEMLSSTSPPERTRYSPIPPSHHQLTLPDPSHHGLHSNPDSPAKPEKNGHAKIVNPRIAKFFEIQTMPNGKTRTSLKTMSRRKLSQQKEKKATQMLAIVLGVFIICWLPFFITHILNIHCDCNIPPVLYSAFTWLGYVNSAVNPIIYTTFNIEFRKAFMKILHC

[1] = Part C, isomers of Examples 13 and 14, hydrochloride
[2] = Part D, enantiomers by synthesis of Example 21, hydrochloride

Compound	ED50, 1 Hr. (Amphetamine Stereotypy; [1]) [micrograms/kilograms]	ED50, 1 Hr. (Amphetamine Stereotypy; [2]) [mg/kg]	ED50, 5 Hrs. (Amphetamine Stereotypy; 5 hrs, Part D, enantiomers by synthesis of Example 21, hydrochloride, 300 min) [mg/kg]	ED50, 24 Hrs. (Amphetamine Stereotypy; [1])	ED50, 24 Hrs. (Amphetamine Stereotypy; [2]) [mg/kg]	ED50, 48 Hrs. (Amphetamine Stereotypy; [2])	ED50, 72 Hrs. (Amphetamine Stereotypy; [2]) [mg/kg]	IC50 (dopamine receptors) [nM]	ED50 (Amphetamine Stereotypy; 1 h, Part C, isomers of Examples 13 and 14, read-out: ED50, 1 Hr.) [mg/kg]	ED50 (Amphetamine Stereotypy; 5 h, Part C, isomers of Examples 13 and 14, read-out: ED50, 5 Hrs.) [mg/kg]	ED50 (Amphetamine Stereotypy; 24 h, Part C, isomers of Examples 13 and 14, read-out: ED50, 24 Hrs.) [mg/kg]
OC(CCCN1CC[C@@H]2[C@@H](C1)c1cc(F)ccc1N2c1ccc(F)cc1)c1ccc(F)cc1 (single isomer, unassigned) [δ, trans 8-fluoro-5-(p-fluorophenyl)-2-[4-hydroxy-4(p-fluorophenyl)butyl]-2,3,4,4a,5,9b-hexahydro-1H-pyrido[4,3-b]indole hydrochloride]	> 1000	> 10	5.7	320-1000 micrograms/kilograms	> 10	> 10 mg/kg	> 10	350	–	–	–
OC(CCCN1CC[C@@H]2[C@@H](C1)c1cc(F)ccc1N2c1ccc(F)cc1)c1ccc(F)cc1 (single isomer, unassigned) [γ, trans 8-fluoro-5-(p-fluorophenyl)-2-[4-hydroxy-4(p-fluorophenyl)butyl]-2,3,4,4a,5,9b-hexahydro-1H-pyrido[4,3-b]indole hydrochloride]	–	–	–	32-100 micrograms/kilograms	–	ca. 1 mg./kg.	> 1	25	–	–	–
OC(CCCN1CC[C@H]2[C@H](C1)c1cc(F)ccc1N2c1ccc(F)cc1)c1ccc(F)cc1 (relative stereo) [αβγδ, dl-trans-8-Fluoro-5-(p-fluorophenyl)-2-[4-hydroxy-4-(p-fluorophenyl)butyl]-2,3,4,4a,5,9b-hexahydro-1H-pyrido[4,3-b]indole hydrochloride]	–	–	–	–	–	–	–	21	0.032 to 0.1	0.032 to 0.1	0.032 to 0.1
